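All cell lines were grown in 96-well plates and treated with compound for 48 hours. Here, GI50 denotes the concentration required for 50% inhibition of growth.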 Active and inactive are the calls of the source. Cut-off read from the data, not from the text of the source: active = GI50 up to about 1.1 µM and inactive = higher.
Legend:
Assay in all cases: NCI anticancer screen, dose series, 48 h
[1] = tested on: RXF 393
[2] = tested on: SF-268
[3] = tested on: COLO 205
[4] = tested on: A549
[5] = tested on: A498
[6] = tested on: OVCAR-4
[7] = tested on: SF-539
[8] = tested on: 786-0
[9] = tested on: U-251
[10] = tested on: NCI-H226
[11] = tested on: MDA-MB-435
[12] = tested on: CAKI-1
[13] = tested on: MDA-N
[14] = tested on: OVCAR-3
[15] = tested on: NCI-H460
[16] = tested on: OVCAR-5
[17] = tested on: UACC-257
[18] = tested on: Hs-578T
[19] = tested on: NCI-H23
[20] = tested on: SW-620
[21] = tested on: SK-OV-3
[22] = tested on: UACC-62
[23] = tested on: ACHN
[24] = tested on: MDA-MB-231
[25] = tested on: HCT-116
[26] = tested on: SN12C
[27] = tested on: HCT-15
[28] = tested on: MCF7
[29] = tested on: SNB-19
[30] = tested on: K562
[31] = tested on: SK-MEL-28
[32] = tested on: DU-145
[33] = tested on: EKVX
[34] = tested on: SR
[35] = tested on: HCC 2998
[36] = tested on: HOP-92
[37] = tested on: RPMI-8226
[38] = tested on: M14
[39] = tested on: IGROV-1
[40] = tested on: HL-60
[41] = tested on: LOX IMVI
[42] = tested on: KM12
[43] = tested on: BT-549
[44] = tested on: SK-MEL-2
[45] = tested on: Malme-3M
[46] = tested on: SK-MEL-5
[47] = tested on: MOLT-4
[48] = tested on: T47D
[49] = tested on: PC-3
[50] = tested on: OVCAR-8
[51] = tested on: HOP-62
[52] = tested on: NCI/ADR-RES
[53] = tested on: NCI-H522
[54] = tested on: SF-295
[55] = tested on: TK-10
[56] = tested on: CCRF-CEM

Measured: GI50

O=C1c2ccc3cc(CCl)cc(O)c3c2C(=O)c2cccc(O)c21
1100 nM: [27]
active: [11] 179 nM | [13] 169 nM | [14] 152 nM | [20] 145 nM | [24] 1080 nM | [25] 1100 nM | [28] 729 nM | [34] 447 nM | [38] 239 nM | [40] 284 nM | [45] 15.1 nM | [46] 604 nM | [56] 1070 nM
inactive: [1] 2550 nM | [2] 2160 nM | [3] 1950 nM | [4] 4610 nM | [5] > 10000 nM | [6] 2670 nM | [7] 2390 nM | [8] 2070 nM | [9] 2720 nM | [10] 2700 nM | [12] > 10000 nM | [15] 3300 nM | [16] > 10000 nM | [17] 1170 nM | [18] > 10000 nM | [19] 3120 nM | [21] > 10000 nM | [22] 1220 nM | [23] 2910 nM | [26] 1500 nM | [29] 4580 nM | [30] 3440 nM | [31] 1770 nM | [32] 4950 nM | [33] > 10000 nM | [35] 3170 nM | [36] 4580 nM | [37] 2210 nM | [39] > 10000 nM | [41] 2960 nM | [42] 4790 nM | [43] > 10000 nM | [44] 1640 nM | [47] 1370 nM | [48] 7480 nM | [49] 1810 nM | [50] 2010 nM | [51] 3380 nM | [52] 2020 nM | [53] 3280 nM | [54] > 10000 nM | [55] > 10000 nM

Reference: ChEMBL document CHEMBL1201862, “PubChem BioAssay data set” (2004)
